# Laboratory results published in patent publication US20070037752A1, “Novel alanyl-amino peptidase inhibitors for functionally influencing different cells and treating immunological, inflammatory, neuronal, and other diseases” (priority 2003, published 2007).
# Like-named read-outs stand apart in the source and are kept apart here.
# Target: alanyl aminopeptidases (APN) (Homo sapiens, UniProt P15144)
# Assay: Inhibition of alanyl aminopeptidase enzymatic activity, fluorogenic substrate (Ala)2-rhodamine 110
# Format: biochemical
# Experimental: The inhibition characteristics measured are referred to as IC-50 values or ID50 values (the latter marked with “*”) for said enzyme. The enzymatic activity was determined by means of the fluorogenic substrate/product (Ala)2-rhodamine 110.
# [1] = Table 4, starred values = ID50, read-out: ID50 APN (values marked with *)
# [2] = Table 9, unstarred values, read-out: IC50APN
# [3] = Table 3, unstarred values, read-out: IC50APN
# [4] = Table 4, unstarred values, read-out: IC50APN
# Chain of alanyl aminopeptidases (APN) (P15144 whole entry, species assumed): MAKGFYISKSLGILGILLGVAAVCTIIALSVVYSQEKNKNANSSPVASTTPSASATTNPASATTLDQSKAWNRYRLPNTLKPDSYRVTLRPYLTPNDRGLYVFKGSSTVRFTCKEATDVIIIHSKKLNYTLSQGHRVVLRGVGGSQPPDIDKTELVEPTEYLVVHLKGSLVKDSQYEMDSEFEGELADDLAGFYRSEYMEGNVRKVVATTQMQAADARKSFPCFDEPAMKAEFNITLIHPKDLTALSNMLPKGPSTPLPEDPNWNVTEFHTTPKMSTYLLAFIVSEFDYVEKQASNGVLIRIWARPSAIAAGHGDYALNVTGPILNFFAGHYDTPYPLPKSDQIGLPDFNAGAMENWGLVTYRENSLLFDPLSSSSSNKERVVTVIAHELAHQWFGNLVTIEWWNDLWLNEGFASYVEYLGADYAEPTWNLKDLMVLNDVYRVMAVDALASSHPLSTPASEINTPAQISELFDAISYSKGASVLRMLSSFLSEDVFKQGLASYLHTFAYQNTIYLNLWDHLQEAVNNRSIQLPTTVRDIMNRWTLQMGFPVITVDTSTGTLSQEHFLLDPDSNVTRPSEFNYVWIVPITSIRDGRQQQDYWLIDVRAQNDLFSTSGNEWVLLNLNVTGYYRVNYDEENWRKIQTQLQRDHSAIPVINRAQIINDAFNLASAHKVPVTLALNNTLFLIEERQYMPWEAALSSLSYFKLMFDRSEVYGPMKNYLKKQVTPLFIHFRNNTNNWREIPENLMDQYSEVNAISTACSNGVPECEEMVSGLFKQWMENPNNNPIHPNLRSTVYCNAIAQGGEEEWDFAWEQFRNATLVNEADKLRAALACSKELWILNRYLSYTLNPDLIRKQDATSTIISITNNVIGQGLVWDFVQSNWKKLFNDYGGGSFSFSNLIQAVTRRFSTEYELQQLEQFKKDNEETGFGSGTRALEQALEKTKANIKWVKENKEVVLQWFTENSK
structure (smiles),measurement,setting,value
O=C(CNC(=O)c1ccccc1)N/N=C/c1ccco1 [A4.140],IC50,[1],49.4 µM
O=C(N/N=C/c1ccco1)c1cc(-c2ccccc2Cl)n[nH]1 [A4.163],IC50,[1],75.8 µM
CN/C=C1\C=C(c2ccccc2)OC1=S [A7.001],IC50,"Table 7, read-out: IC50APN",6 µM
CCc1cccc(CC)c1NC(=S)N/N=C1\C(=O)N(CN2CC(C)CC(C)C2)c2ccccc21 (stereo not drawn) [A9.011],IC50,[2],6.7 µM
CC(C)Oc1ccc(/C=N/CCC2(c3ccccc3)CCOC(C)(C)C2)cc1 (stereo not drawn) [A5.007],IC50,"Table 5, starred values = ID50, read-out: ID50 APN (values marked with *)",197 µM
Cc1cccc[n+]1OC(=O)N1CCCCC1 [A9.118],IC50,"Table 9, starred values = ID50, read-out: ID50 APN (values marked with *)",96.7 µM
CC1=C(C#N)C(=O)N=C(O)/C1=C\c1ccc(-c2ccc(Cl)cc2Cl)o1 [A3.187],IC50,[3],30.3 µM
Cc1ccc(C(=O)N/C(=C\c2ccco2)C(=O)N2CC3CC(C2)c2cccc(=O)n2C3)cc1 (stereo not drawn) [A10.005],IC50,"Table 10, read-out: IC50APN",11 µM
CC1(C)CC(CC/N=C/c2ccccc2)(Cc2ccccc2)CCO1 (stereo not drawn) [A5.006],IC50,"Table 5, unstarred values, read-out: IC50APN",93.6 µM
C=CCN1C(=O)C(C#N)=C(C)/C(=C\c2ccc(-c3cc(C)c(C)cc3[N+](=O)[O-])o2)C1=O [A9.076],IC50,[2],29.3 µM
Cc1ccc(S(=O)(=O)CNC(=S)c2ccc3ccccc3c2)cc1 [A7.004],IC50,"Table 7, read-out: IC50APN",11.8 µM
O=C(C[N+](=O)[O-])C1=CC2OC=CC2N1 (stereo not drawn) [A3.258],IC50,[3],49.5 µM
CC1=C(C#N)C(=O)N=C(O)/C1=C\c1ccc(-c2ccc(Cl)cc2Cl)o1 [A9.080],IC50,[2],30.3 µM
O=C(N/N=C/c1ccco1)c1cccc(NC(=O)c2ccccc2)c1 [A4.094],IC50,[4],29.5 µM
O=C(Cc1cccs1)N/N=C\c1ccco1 [A4.178],IC50,[4],143 µM
COc1ccc(/C=C(/NC(=O)c2ccccc2)C(=O)N/N=C\C=C\c2ccc(C)o2)cc1OC [A3.081],IC50,[3],16.7 µM
O=C(Cc1ccccc1)NCC(=O)N/N=C/c1ccco1 [A3.300],IC50,"Table 3, starred values = ID50, read-out: ID50 APN (values marked with *)",73.1 µM
CC(NC(=O)C(=O)N/N=C\c1cc([N+](=O)[O-])ccc1O)c1ccccc1 (stereo not drawn) [A11.007],IC50,"Table 11, read-out: IC50APN",11.4 µM
COc1ccc(C[C@@H](N)C(=O)N[C@H]2[C@H](O)[C@H](n3cnc4c(N(C)C)ncnc43)O[C@@H]2CO)cc1 [A9.050],IC50,[2],20.9 µM
CC1=C(C#N)C(O)=NC(=O)/C1=C/c1ccc(-c2ccc(Cl)c(C(=O)OC(C)C)c2)o1 [A13.012],IC50,"Table 13, read-out: IC50APN",21.4 µM
CCCOC(=O)c1cc(-c2ccc(/C=C3\C(=O)N(CCO)C(=O)C(C#N)=C3C)o2)ccc1Cl [A3.270],IC50,[3],54 µM
C/C(=N\NC(=O)COc1ccc(C)cc1[NH+]([O-])O)c1ccco1 (stereo not drawn) [A11.038],IC50,"Table 11, read-out: IC50APN",422 µM
COC(=O)C(NC(=O)c1ccccc1)(Nc1sc2c(c1C#N)CCC(C(C)(C)C)C2)C(F)(F)F (stereo not drawn) [A12.056],IC50,"Table 12, read-out: IC50APN",43.6 µM
O=C(N/N=C/c1ccco1)c1ccccc1 [A3.227],IC50,[3],37.7 µM
N/C(=N\N=C\c1ccco1)c1nonc1N [A2.007],IC50,"Table 2, read-out: IC50APN",14.6 µM
O=C1/C(=C/C=C/c2ccco2)CCC/C1=C\C=C\c1ccco1 [A3.147],IC50,[3],24.4 µM
CCOC(=O)C(C#N)c1c([N+](=O)[O-])c(=O)n(-c2ccccc2)c2ccccc12 (stereo not drawn) [A11.022],IC50,"Table 11, read-out: IC50APN",30 µM
O=C(Nc1ccc(NCc2cc(Cc3ccccc3Cl)cc(Br)c2O)cc1)c1ccco1 [A3.017],IC50,[3],4.9 µM
O=C(C[N+](=O)[O-])c1cc2occc2[nH]1 [A11.030],IC50,"Table 11, read-out: IC50APN",49.5 µM
COc1cc(Br)ccc1OCC(=O)N/N=C/c1cc(Br)c(O)c(O)c1Br [A4.056],IC50,[4],20.5 µM
Cn1nc(-c2cccs2)nc2c(=O)n(C)c(=O)nc1-2 [A8.021],IC50,"Table 8, unstarred values, read-out: IC50APN",25 µM
CC(/C=N/NC(=O)C(O)c1ccccc1)=C\c1ccco1 (stereo not drawn) [A3.219],IC50,[3],36.3 µM
Cc1ccc(/C=N/NC(=O)c2ccccc2Cl)o1 [A4.044],IC50,[4],17.7 µM
O=C(CCOC(c1ccc(F)cc1)c1ccc(F)cc1)NO [A1.012],IC50,"Table 1, unstarred values, read-out: IC50APN",21.8 µM
O=C(COc1ccccc1)N/N=C/c1ccco1 [A3.312],IC50,[3],87.5 µM
O=C(Nc1cccc(/N=C/c2cc(I)cc(I)c2O)c1)c1ccco1 [A3.009],IC50,[3],3 µM
Cc1ccc(S(=O)(=O)CNC(=S)c2ccc3ccccc3c2)cc1 [A6.005],IC50,"Table 6, read-out: IC50APN",11.8 µM
Cc1ccc(Cn2c(SCCC(=O)O)nc3c2c(=O)[nH]c(=O)n3C)cc1 [A8.033],IC50,"Table 8, starred values = ID50, read-out: ID50 APN (values marked with *)",53.2 µM
O=C(N/N=C/c1ccco1)c1ccccc1O [A3.075],IC50,[3],16 µM
C/C(=N\NC(=O)c1ccco1)c1ccc(C)o1 [A4.179],IC50,[4],152 µM
COc1ccc(Cl)cc1C(=O)N/C(=C/c1ccco1)C(=O)N1CC2CC(C1)c1cccc(=O)n1C2 (stereo not drawn) [A3.030],IC50,[3],8.1 µM
CCCOc1ccccc1-c1c[nH]c(C(=O)N/N=C/c2ccco2)c1 [A4.051],IC50,[4],19.5 µM
CCN(CC)c1ccc(/C=C(/NC(=O)c2ccccc2)C(=O)N/N=C/c2cc(I)c(O)c(I)c2)cc1 [A4.004],IC50,[4],5.1 µM
Cc1ccccc1C(=O)N1CCC(C(=O)Nc2ccc(OCc3ccccc3)cc2)CC1 [A9.102],IC50,[2],54 µM
CC(=O)n1cc(/C=C/C=N/NC(=O)CC#N)c2ccccc21 [A3.214],IC50,[3],35.5 µM
